According to US8193237B2, “Indole derivative having IκB kinase β inhibitory activity” (Santen Pharmaceutical Co., Ltd., priority 2007, dated 2012):

What follows are compounds tested against T1, IKKβ (Homo sapiens, UniProt O14920) (assay: IKKβ inhibition assay by fluorescence polarization (IMAP kit)). Details: test compound at 1 μM; inhibition rate exceeding 100% is indicated as 100%.
T1 construct: purchased Upstate Biotechnology Inc. 14-485
T1 sequence (O14920 1-756): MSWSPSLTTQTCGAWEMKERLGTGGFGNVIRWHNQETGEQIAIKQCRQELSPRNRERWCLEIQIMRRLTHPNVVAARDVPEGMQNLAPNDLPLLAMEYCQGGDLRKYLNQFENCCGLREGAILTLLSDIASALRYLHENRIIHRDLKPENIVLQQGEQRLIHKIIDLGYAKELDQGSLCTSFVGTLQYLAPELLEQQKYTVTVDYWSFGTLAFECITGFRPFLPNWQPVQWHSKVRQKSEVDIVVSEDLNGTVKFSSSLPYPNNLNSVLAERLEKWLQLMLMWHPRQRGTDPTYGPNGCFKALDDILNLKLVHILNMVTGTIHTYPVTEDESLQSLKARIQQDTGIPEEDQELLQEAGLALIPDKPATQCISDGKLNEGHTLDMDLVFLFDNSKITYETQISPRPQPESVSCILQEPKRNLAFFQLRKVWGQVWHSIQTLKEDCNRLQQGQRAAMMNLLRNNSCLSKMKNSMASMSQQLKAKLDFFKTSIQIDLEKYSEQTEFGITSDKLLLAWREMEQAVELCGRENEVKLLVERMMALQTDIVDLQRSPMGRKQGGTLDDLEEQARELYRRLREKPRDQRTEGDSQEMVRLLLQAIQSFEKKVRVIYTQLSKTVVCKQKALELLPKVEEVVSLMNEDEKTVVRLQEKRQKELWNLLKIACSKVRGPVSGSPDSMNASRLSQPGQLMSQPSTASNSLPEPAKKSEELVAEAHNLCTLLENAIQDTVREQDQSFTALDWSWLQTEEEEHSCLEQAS
Type: biochemical
Experimental: In order to evaluate IKKβ inhibitory activity of the present compounds, an IKKβ inhibition assay by the fluorescence polarization method was conducted.
The assay was conducted using IMAP™ IKKβ assay kit (manufactured by Molecular Devices Corporation, catalogue No. R8115) or IMAP™ FP Screening Express kit (manufactured by Molecular Devices Corporation, catalogue No. R8127) and in accordance with the protocol attached to each kit. The specific methods are described below. (Preparation of Reagents)
1) Complete Reaction Buffer: a complete reaction buffer was so prepared as to obtain a final concentration of 10 mM Tris-HCL (pH 7.2), 10 mM magnesium chloride, 0.1% bovine serum albumin, and 1 mM dithiothreitol.
2) Substrate Working Solution: 400 nM of a substrate working solution was prepared by dissolving and diluting a fluorescein-labeled IKKβ substrate peptide (amino acid sequence: GRHDSGLDSMK) with the complete reaction buffer.
3) Enzyme Working Solution: 0.2 units/mL of an enzyme working solution was prepared by diluting IKKβ solution (manufactured by Upstate Biotechnology Inc., catalogue No. 14-485) with the complete reaction buffer.
4) ATP Working Solution: 8 μM of an ATP working solution was prepared by dissolving ATP into ultrapure water followed by diluting it with the complete reaction buffer.
5) IMAP binding solution: After diluting an IMAP binding buffer with ultrapure water, an IMAP binding solution was prepared by diluting an IMAP binding reagent with the diluted IMAP binding buffer.
A test compound was dissolved in dimethylsulfoxide followed by diluting it with the complete reaction buffer to prepare 4 μM of a test compound solution.
1) To a 384-well plate, the test compound solution, the enzyme working solution, the substrate working solution, and the ATP working solution were added in an amount of 5 μL per well.
2) Incubation was performed at a room temperature for 60 minutes under light shielding.
3) The IMAP binding solution was added in an amount of 60 μL per well.
4) Incubation was performed at a room temperature for 30 minutes under light shielding.
5) Fluorescence polarization value of each well was measured by using Analyst™ HT (multimode plate reader manufactured by Molecular Devices Corporation) and Criterion Host Software v2.00 (manufactured by Molecular Devices Corporation).
6) Operations were performed in the same manner as in 1) to 5) except for changing the test compound to 0.4% dimethylsulfoxide. The obtained result was designated as a control.
7) Operations were performed in the same manner as in 1) to 5) except for changing the test compound and the enzyme working solution to 0.4% dimethylsulfoxide and the complete reaction buffer, respectively. The obtained result was designated as a background.
An IKKβ inhibition rate (%) was calculated by the following equation.
IKKβ inhibition rate (%)=100×{1−(fluorescence polarization value of test compound−fluorescence polarization value of background)/(fluorescence polarization value of control−fluorescence polarization value of background)}

Inhibition at 1 µM, 97%:
NC(=O)Nc1[nH]c2cc(-c3cccc(CCO)c3)ccc2c1C(N)=O [Compound 7-5]

Inhibition at 1 µM, 98%:
NC(=O)Nc1[nH]c2cc(-c3ccncc3)ccc2c1C(N)=O [Compound 7-9]
NC(=O)Nc1[nH]c2cc(-c3ccnc(Cl)c3)ccc2c1C(N)=O [Compound 7-26]
C[C@H](O)c1cccc(-c2ccc3c(C(N)=O)c(NC(N)=O)[nH]c3c2)c1 [Compound 7-45]
NC(=O)Nc1[nH]c2cc(CCCCO)ccc2c1C(N)=O [Compound 11-6, 2-Aminocarbonylamino-6-(4-hydroxybutyl)indole-3-carboxamide]
CNCc1ccc(-c2ccc3c(C(N)=O)c(NC(N)=O)[nH]c3c2)s1 [Compound 13-24, 2-Aminocarbonylamino-6-(5-methylaminomethylthiophen-2-yl)indole-3-carboxamide]

Inhibition at 1 µM, 95%:
NC(=O)Nc1[nH]c2cc(C#CCO)ccc2c1C(N)=O [Compound 9-2, 2-Aminocarbonylamino-6-(3-hydroxy-1-propynyl) indole-3-carboxamide]
CCc1ccc2c(C(N)=O)c(NC(N)=O)[nH]c2c1 [Compound 11-1, 2-Aminocarbonylamino-6-ethylindole-3-carboxamide]
CN(C)CCCc1ccc2c(C(N)=O)c(NC(N)=O)[nH]c2c1 [Compound 11-8, 2-Aminocarbonylamino-6-(3-dimethylaminopropyl) indole-3-carboxamide]

Inhibition at 1 µM, 100%:
COc1cc(-c2ccc3c(C(N)=O)c(NC(N)=O)[nH]c3c2)ccc1CO [Compound 7-14]
C[C@@H](O)c1cccc(-c2ccc3c(C(N)=O)c(NC(N)=O)[nH]c3c2)c1 [Compound 7-44]
NCc1ccc(-c2ccc3c(C(N)=O)c(NC(N)=O)[nH]c3c2)cc1 [Compound 8-3]
CC(N)c1ccc(-c2ccc3c(C(N)=O)c(NC(N)=O)[nH]c3c2)cc1 (stereo not drawn) [Compound 8-5]
C#Cc1ccc2c(C(N)=O)c(NC(N)=O)[nH]c2c1 [Compound 10-1, 2-aminocarbonylamino-6-ethynylindole-3-carboxamide]
NC(=O)Nc1[nH]c2cc(C3CCCCC3)ccc2c1C(N)=O [Compound 11-4, 2-Aminocarbonylamino-6-cyclohexylindole-3-carboxamide]
NC(=O)Nc1[nH]c2cc(-c3cccc(CO)c3)ccc2c1C(N)=O [Compound 12-1, 2-aminocarbonylamino-6-(3-hydroxymethylphenyl)indole-3-carboxamide]
CC(C)NCc1cccc(-c2ccc3c(C(N)=O)c(NC(N)=O)[nH]c3c2)c1 [Compound 13-5, 2-Aminocarbonylamino-6-(3-isopropylaminomethylphenyl) indole-3-carboxamide]
NC(=O)Nc1[nH]c2cc(-c3cccc(CNCCO)c3)ccc2c1C(N)=O [Compound 13-13, 2-Aminocarbonylamino-6-[3-(2-hydroxyethylaminomethyl)phenyl]indole-3-carboxamide]
NC(=O)Nc1[nH]c2cc(-c3ccc(CNC4CC4)o3)ccc2c1C(N)=O [Compound 13-15, 2-Aminocarbonylamino-6-(5-cyclopropylaminomethylfuran-2-yl)indole-3-carboxamide]
NC(=O)Nc1[nH]c2cc(C3SCCS3)ccc2c1C(N)=O [Compound 20-1, 2-Aminocarbonylamino-6-(1,3-dithiolan-2-yl)indole-3-carboxamide]
NC(=O)Nc1[nH]c2cc(C(=O)NCc3ccccc3)ccc2c1C(N)=O [Compound 22-9]
NC(=O)Nc1[nH]c2cc(CN3CCCC3)ccc2c1C(N)=O [Compound 24-2]
CCSCc1ccc2c(C(N)=O)c(NC(N)=O)[nH]c2c1 [Compound 25-3]

Inhibition at 1 µM, 87%:
NC(=O)Nc1[nH]c2cc(C#Cc3ccccc3)ccc2c1C(N)=O [Compound 9-1, 2-Aminocarbonylamino-6-phenylethynylindole-3-carboxamide]

Inhibition at 1 µM, 99%:
CC(C)(N)c1ccc(-c2ccc3c(C(N)=O)c(NC(N)=O)[nH]c3c2)cc1 [Compound 8-6]
NC(=O)Nc1[nH]c2cc(-c3ccc(CO)o3)ccc2c1C(N)=O [Compound 12-2, 2-Aminocarbonylamino-6-(5-hydroxymethylfuran-2-yl) indole-3-carboxamide]

Inhibition at 1 µM, 78%:
NC(=O)Nc1[nH]c2cc(CO)ccc2c1C(N)=O [Compound 16-1, 2-Aminocarbonylamino-6-hydroxymethylindole-3-carboxamide]

Inhibition at 1 µM, 94%:
CN(C)CC#Cc1ccc2c(C(N)=O)c(NC(N)=O)[nH]c2c1 [Compound 9-18, 2-Aminocarbonylamino-6-(3-dimethylamino-1-propynyl) indole-3-carboxamide]
COCCCc1ccc2c(C(N)=O)c(NC(N)=O)[nH]c2c1 [Compound 11-10, 2-Aminocarbonylamino-6-(3-methoxypropyl)indole-3-carboxamide]

Inhibition at 1 µM, 70%:
NC(=O)Nc1[nH]c2cc(C(=O)N3CCCC3)ccc2c1C(N)=O [Compound 22-2]
